Assay results: EP1738803A1, “Inhibitors of staphylococcus hominis in deodorants and antiperspirants” (Henkel Kommanditgesellschaft auf Aktien, priority 2005, dated 2007)
Read-outs that look alike come from different tables or passages of the source.

Tested on: Staphylococcus hominis
Assay: Inhibition test: growth of Staphylococcus hominis in Luria broth liquid culture, plate count versus control
Type: cell-based
Settings: for log reduction at 0.1 % / log reduction at 0.05 % / log reduction at 0.2 % / log reduction at 0.5 %: Staphylococcus hominis, read-out: Hemmleistung als Differenz zur Kontrolle in log-Stufen (RF-Wert); for log reduction at 0.1 %: 0,1 Gew.-% Aktivsubstanz; for log reduction at 0.1 % / log reduction at 0.05 % / Hemmleistung als Differenz zur Kontrolle in log-Stufen (RF-Wert): 37°C; for log reduction at 0.05 %: 0,05 Gew.-% Aktivsubstanz; for Hemmleistung als Differenz zur Kontrolle in log-Stufen (RF-Wert): 0,5 Gew.-% Aktivsubstanz
Protocol: Eine Luria-broth-Vorkultur (1 Gew.-% Trypton, 0,5 Gew.-% Hefeextrakt, 0,5 Gew.-% NaCl) von Staphylococcus hominis wurde mit Medium auf eine OD600 von 0,1 (entspricht 10^5-10^7 cfu/ml) eingestellt und in 50 ml-Aliquots auf Erlenmeyer-Kolben verteilt. Dazu wurden die zu testenden Wirkstoffe gegeben, so dass sie in den in Tabelle 1 angegebenen Konzentrationen vorlagen, und die Kultur mit 100 Upm bei 37°C inkubiert. Öllösliche Stoffe wie Bisabolol wurden mit 0,1% Tween emulgiert und gegen eine entsprechende Kontrolle getestet. Nach 4, 8 und 24 h erfolgte eine Keimzahlbestimmung über Ausplattieren, wobei die Hemmleistung der einzelnen Wirkstoffe als RF-Wert (Differenz zur Kontrolle in log-Stufen) angegeben ist. Tabelle 1

CC(C)=CCC[C@](C)(O)C1CC=C(C)CC1 (stereo partly drawn) [(-)-α-Bisabolol]
log reduction at 0.1 % (Zeit 0 h): 0 | log reduction at 0.1 % (Zeit 4 h): 1.98 | log reduction at 0.1 % (Zeit 8 h): 2.6 | log reduction at 0.05 % (Zeit 0 h): 0 | log reduction at 0.05 % (Zeit 4 h): 1.3 | log reduction at 0.05 % (Zeit 8 h): 1.75

Aluminiumchlorhydrat
Hemmleistung als Differenz zur Kontrolle in log-Stufen (RF-Wert) (Zeit 0 h): 0 log-Stufen | Hemmleistung als Differenz zur Kontrolle in log-Stufen (RF-Wert) (Zeit 4 h): 6,07 log-Stufen | Hemmleistung als Differenz zur Kontrolle in log-Stufen (RF-Wert) (Zeit 8 h): 6,34 log-Stufen

CCCCC(CC)COCC(O)CO (stereo not drawn) [Sensiva SC 50, α-Mono-(2-ethylhexyl)glycerinether]
log reduction at 0.2 % (0 h): 0 | log reduction at 0.5 % (0 h): 0 | log reduction at 0.2 % (4 h): 5.77 | log reduction at 0.5 % (4 h): 6.14 | log reduction at 0.2 % (8 h): 6.19 | log reduction at 0.5 % (8 h): 6.63
